Measurements published in patent publication US20130189351A1, “LIPIDS SUITABLE FOR LIPOSOMAL DELIVERY OF PROTEIN CODING RNA” (priority 2010, published 2013).

Experiment: physchem
Procedure: The pKa of a lipid is the pH at which 50% of the lipids are charged, lying halfway between the point where the lipids are completely charged and the point where the lipids are completely uncharged.
The pKa of a lipid is measured in water at standard temperature and pressure using the following technique: • 2 mM solution of lipid in ethanol is prepared by weighing the lipid and dissolving in ethanol. 0.3 mM solution of fluorescent probe toluene nitrosulphonic acid (TNS) in ethanol:methanol 9:1 is prepared by first making 3 mM solution of TNS in methanol and then diluting to 0.3 mM with ethanol. • An aqueous buffer containing sodium phosphate, sodium citrate sodium acetate and sodium chloride, at the concentrations 20 mM, 25 mM, 20 mM and 150 mM, respectively, is prepared. The buffer is split into eight parts and the pH adjusted either with 12N HCl or 6N NaOH to 4.44-4.52, 5.27, 6.15-6.21, 6.57, 7.10-7.20, 7.72-7.80, 8.27-8.33 and 10.47-11.12. 400 uL of 2 mM lipid solution and 800 uL of 0.3 mM TNS solution are mixed. • 7.5 μL of probe/lipid mix are added to 242.5 μL of buffer in a 1 mL 96 well plate. This is done with all eight buffers. […]

CCCCC/C=C\C/C=C\CCCCCCCCOCC(CN1CCC(C)(C)C1)OCCOCCO[C@H]1CC[C@@]2(C)C(=CC[C@H]3[C@@H]4CC[C@H]([C@H](C)CCCC(C)C)[C@@]4(C)CC[C@@H]32)C1 (some centres unmarked) [RV05]
pKa: 5.85

CCCCC/C=C\C/C=C\CCCCCCCCOCC(CN1CCCC1C)OCCOCCOCCNC(=O)CCC(=O)O[C@H]1CC[C@@]2(C)C(=CC[C@H]3[C@@H]4CC[C@H]([C@H](C)CCCC(C)C)[C@@]4(C)CC[C@@H]32)C1 (some centres unmarked) [RV10]
pKa: 7.86
